ChEMBL document CHEMBL1201862, “PubChem BioAssay data set” (2004)
pIC50: −log10 of the molar value. The source made the active and inactive calls.

What was measured:
[1] = target: Intestinal-type alkaline phosphatase (Mus musculus, UniProt P24822); test: PubChem AID 488785; type: functional
[2] = target: T1, Alkaline phosphatase, tissue-nonspecific isozyme (Homo sapiens, UniProt P05186); test: TNAP enzyme inhibition by screening hits, dose response, selectivity assay for mouse IAP inhibitor project, biochemical, human TNAP, uHTS hits (AID 488906); type: functional
T1 sequence (P05186 whole entry): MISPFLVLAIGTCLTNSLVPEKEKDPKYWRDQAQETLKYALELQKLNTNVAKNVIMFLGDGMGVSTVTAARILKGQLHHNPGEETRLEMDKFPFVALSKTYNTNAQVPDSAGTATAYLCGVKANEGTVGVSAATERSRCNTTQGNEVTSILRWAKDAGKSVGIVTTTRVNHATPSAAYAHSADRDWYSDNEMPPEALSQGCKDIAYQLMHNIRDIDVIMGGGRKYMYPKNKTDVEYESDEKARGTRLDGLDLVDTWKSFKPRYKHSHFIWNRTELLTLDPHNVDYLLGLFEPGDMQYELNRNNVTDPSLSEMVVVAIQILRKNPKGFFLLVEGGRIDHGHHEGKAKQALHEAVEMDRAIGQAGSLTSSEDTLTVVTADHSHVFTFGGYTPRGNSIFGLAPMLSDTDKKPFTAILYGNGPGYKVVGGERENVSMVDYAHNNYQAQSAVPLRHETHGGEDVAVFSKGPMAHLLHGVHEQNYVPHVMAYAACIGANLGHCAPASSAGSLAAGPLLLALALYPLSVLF

[3] = target: Intestinal-type alkaline phosphatase (Homo sapiens, UniProt P09923); test: inhibition of human intestinal alkaline phosphatase – biochemical, dose response (AID 488876); type: functional
[4] = target: Tyrosine-protein phosphatase non-receptor type 7 (Homo sapiens, UniProt P35236); test: HePTP (PTPN7) phosphatase inhibitor potency, SAR follow-up, biochemical, set 2 (AID 449736); type: functional
[5] = target: T2, Kappa-type opioid receptor (Homo sapiens, UniProt P41145); test: SAR analysis of small molecule agonists of the kappa opioid receptor via a luminescent beta-arrestin assay - Set 3. [Related pubchem assays (depositor defined):AID1777, AID1785, AID1786, AID1966, AID2133, AID2136, AID2284, AID2500]; type: functional
[6] = NIH-3T3 fibroblast cytotoxicity, dose response, cytotoxicity control, cell-based, fluorescence, Alamar Blue, secondary assay (AID 2327); type: functional;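 further: NIH-3T3 mouse fibroblasts cultured with fluconazole at 8 µg/mL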
[7] = target: T3, Delta-type opioid receptor (Homo sapiens, UniProt P41143); test: HTS Image-Based Screen for Antagonists of the DOR Receptor. [Related pubchem assays (depositor defined):AID1777, AID1785, AID1786, AID2133]; type: functional
Mu-type opioid receptor = Mu-type opioid receptor (Homo sapiens, UniProt P35372); test: HTS Image-Based Screen for Agonists of the MOR Receptor. [Related pubchem assays (depositor defined):AID1777, AID1785, AID1786, AID2133]; type: functional;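 further: imaging of beta-arrestin GFP recruitment into spots after receptor activation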
[8] = system: Streptococcus sp. 'group A'; test: growth inhibition of control SK(-) GAS strain, dose response, counter-screen for streptokinase expression inhibitor project, luminescence, kanamycin, BacTiterGlo, confirmation (AID 1900); type: functional, organism-based
[9] = target: T3, Delta-type opioid receptor; test: HTS Image-Based Screen for Agonists of the DOR Receptor. [Related pubchem assays (depositor defined):AID1777, AID1786, AID2133]; type: functional
[10] = C. albicans growth with fluconazole, confirmation, fluorescence, retest (AID 2467); type: functional, cell-based
[11] = target: T4, Serine/threonine-protein phosphatase (Candida dubliniensis (strain CD36 / CBS 7987 / NCPF 3949 / NRRLY-17841) (Yeast), UniProt B9W6M3); test: calcineurin pathway inhibitors in yeast reporter, dose response, S. cerevisiae, CDRE-lacZ, luminescence, secondary (AID 2388); type: functional, cell-based;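 further: yeast reporter cells carrying a calcineurin-responsive lacZ construct stimulated with calcium chloride; luminescent beta-galactosidase reporter signal in whole cells rather than isolated phosphatase activity; potency for inhibition where a drop in reporter signal means calcineurin blockade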
T4 sequence (B9W6M3 whole entry): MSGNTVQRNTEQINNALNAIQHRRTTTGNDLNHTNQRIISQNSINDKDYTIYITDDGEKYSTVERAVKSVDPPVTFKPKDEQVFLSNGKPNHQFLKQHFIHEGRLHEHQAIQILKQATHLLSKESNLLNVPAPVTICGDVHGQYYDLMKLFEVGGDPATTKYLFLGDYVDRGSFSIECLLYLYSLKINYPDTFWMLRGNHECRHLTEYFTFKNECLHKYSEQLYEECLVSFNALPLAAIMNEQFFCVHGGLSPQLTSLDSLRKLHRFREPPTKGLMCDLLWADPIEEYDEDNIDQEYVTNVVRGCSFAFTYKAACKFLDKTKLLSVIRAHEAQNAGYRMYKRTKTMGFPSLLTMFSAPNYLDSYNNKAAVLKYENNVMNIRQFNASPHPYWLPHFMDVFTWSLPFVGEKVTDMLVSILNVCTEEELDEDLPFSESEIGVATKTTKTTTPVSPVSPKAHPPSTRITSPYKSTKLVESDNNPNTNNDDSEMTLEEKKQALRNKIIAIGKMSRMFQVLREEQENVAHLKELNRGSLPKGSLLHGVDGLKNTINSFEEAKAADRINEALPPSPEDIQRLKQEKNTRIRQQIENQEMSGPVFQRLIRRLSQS

[12] = target: T2, Kappa-type opioid receptor; type: functional
Beta-galactosidase = Beta-galactosidase (Escherichia coli, UniProt Q8VNN2); type: functional
[13] = target: T2, Kappa-type opioid receptor; type: functional; remark: listed apart in the source
Streptococcus = test: Group A Streptococcus viability loss, dose response, counter-screen for streptokinase expression inhibitor project, luminescence, BacTiterGlo (AID 1915); type: functional, organism-based;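 further: potency for reduction of bacterial viability or growth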
HEK293 = test: inhibitors of LMP1-driven NF-kB reporter, dose response, cell-based, HEK293, luciferase, cherry-pick (AID 588343); type: functional; settings: Homo sapiens
[14] = target: Heat shock protein HSP 90-alpha (Homo sapiens, UniProt P07900); type: functional, organism-based
[15] = target: ATP-dependent molecular chaperone HSP82 (Candida albicans (strain WO-1) (Yeast), UniProt C4YTQ8); test: loss of DOC-induced GRE-beta-galactosidase reporter signal, dose response, Hsp90 inhibitor project, S. cerevisiae, luminescence (AID 2400); type: functional, cell-based;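 further: beta-galactosidase luminescence from glucocorticoid response element reporter as proxy for Hsp90 function; inhibitor potency where signal loss means Hsp90 inhibition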
[16] = decrease of PhoP-driven GFP reporter signal, S. Typhimurium, dose response, PhoP regulon inhibitor project, purified and synthesized compounds, set 2 (AID 2831); type: functional
cells [17] = type: functional, cell-based
SUMO-activating enzyme [18] = target: T5, SUMO-activating enzyme (Homo sapiens, UniProt Q9UBT2); test: SUMOylation inhibitor hit validation, confirmation, SUMOylation inhibitor project, biochemical, AlphaScreen (AID 2018); type: functional
SUMO-activating enzyme [19] = target: T5, SUMO-activating enzyme; test: inhibitors of in vitro SUMOylation cascade, primary screen, biochemical, HTRF, uHTS (AID 2006); type: protein-complex assay
cells [20] = type: functional, cell-based; remark: listed apart in the source
Galanin receptor type 3 = Galanin receptor type 3 (Homo sapiens, UniProt O60755); test: Fluorescence-based cell-based primary high throughput dose response assay to identify antagonists of the Galanin Receptor 3 (GalR3).; type: functional
cells [21] = type: functional, cell-based; settings: HEK-CNG
Albumin = Albumin (Bos taurus, UniProt P02769); test: Counterscreen for inhibitors of T-cell receptor (TCR)-CD3 interaction: Fluorescence-based biochemical high throughput dose response assay to identify inhibitors of T-cell receptor (TCR)-CD3 interaction using a TAMRA-labeled BSA probe.; type: functional
Sequence of Albumin (P02769 whole entry): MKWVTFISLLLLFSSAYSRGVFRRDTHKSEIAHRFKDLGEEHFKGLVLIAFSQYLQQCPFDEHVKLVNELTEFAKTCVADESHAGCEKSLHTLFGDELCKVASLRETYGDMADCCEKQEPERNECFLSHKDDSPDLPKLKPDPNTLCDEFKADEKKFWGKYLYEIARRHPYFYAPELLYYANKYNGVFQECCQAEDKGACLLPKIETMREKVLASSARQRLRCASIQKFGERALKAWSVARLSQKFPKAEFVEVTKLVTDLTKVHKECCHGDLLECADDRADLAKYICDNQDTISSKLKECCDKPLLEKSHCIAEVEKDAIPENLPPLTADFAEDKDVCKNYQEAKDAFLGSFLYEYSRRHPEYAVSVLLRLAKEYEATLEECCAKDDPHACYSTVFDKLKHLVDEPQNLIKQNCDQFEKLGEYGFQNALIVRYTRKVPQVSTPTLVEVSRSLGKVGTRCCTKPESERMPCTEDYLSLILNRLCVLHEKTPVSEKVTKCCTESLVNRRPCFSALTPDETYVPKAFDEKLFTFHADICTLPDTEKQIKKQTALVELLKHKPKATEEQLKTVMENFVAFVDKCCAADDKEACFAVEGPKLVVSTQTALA

T2 sequence (P41145 whole entry): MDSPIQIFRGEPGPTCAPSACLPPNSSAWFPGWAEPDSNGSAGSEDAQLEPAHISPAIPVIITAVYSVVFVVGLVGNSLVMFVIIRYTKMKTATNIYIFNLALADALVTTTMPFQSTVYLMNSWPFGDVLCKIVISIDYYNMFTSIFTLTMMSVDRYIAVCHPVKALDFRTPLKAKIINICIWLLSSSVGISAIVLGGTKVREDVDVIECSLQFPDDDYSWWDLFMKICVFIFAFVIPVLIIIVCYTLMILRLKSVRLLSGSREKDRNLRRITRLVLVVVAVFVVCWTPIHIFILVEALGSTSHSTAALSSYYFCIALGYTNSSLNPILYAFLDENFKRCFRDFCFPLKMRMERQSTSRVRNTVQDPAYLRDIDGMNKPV
T5 sequence (Q9UBE0 whole entry): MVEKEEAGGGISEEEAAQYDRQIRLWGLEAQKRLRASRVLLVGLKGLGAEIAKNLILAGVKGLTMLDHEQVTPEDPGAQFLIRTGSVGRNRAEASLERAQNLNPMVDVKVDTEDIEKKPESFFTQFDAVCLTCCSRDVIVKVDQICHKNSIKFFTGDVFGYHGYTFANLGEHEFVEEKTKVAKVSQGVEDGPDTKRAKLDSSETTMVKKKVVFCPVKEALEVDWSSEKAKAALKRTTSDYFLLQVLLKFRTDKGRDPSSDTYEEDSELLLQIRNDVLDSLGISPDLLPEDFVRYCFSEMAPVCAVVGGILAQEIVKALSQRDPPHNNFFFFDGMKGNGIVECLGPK
T5 sequence (Q9UBT2 whole entry): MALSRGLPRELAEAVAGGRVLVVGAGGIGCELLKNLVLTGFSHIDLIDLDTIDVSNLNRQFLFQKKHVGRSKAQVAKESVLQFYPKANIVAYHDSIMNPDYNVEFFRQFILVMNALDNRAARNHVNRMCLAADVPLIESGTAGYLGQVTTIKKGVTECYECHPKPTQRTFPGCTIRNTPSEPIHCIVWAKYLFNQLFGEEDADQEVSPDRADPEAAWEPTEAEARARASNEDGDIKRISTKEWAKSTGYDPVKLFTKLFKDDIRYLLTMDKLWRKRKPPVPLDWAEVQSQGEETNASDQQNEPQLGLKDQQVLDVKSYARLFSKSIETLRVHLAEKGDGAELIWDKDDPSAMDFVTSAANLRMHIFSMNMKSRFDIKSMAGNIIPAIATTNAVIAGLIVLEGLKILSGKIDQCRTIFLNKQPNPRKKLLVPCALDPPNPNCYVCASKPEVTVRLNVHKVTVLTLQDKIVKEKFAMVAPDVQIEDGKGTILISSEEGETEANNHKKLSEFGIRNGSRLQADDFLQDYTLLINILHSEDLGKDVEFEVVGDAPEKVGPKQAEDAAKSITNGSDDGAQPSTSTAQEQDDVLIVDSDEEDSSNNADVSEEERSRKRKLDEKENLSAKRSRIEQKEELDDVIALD
T3 sequence (P41143 whole entry): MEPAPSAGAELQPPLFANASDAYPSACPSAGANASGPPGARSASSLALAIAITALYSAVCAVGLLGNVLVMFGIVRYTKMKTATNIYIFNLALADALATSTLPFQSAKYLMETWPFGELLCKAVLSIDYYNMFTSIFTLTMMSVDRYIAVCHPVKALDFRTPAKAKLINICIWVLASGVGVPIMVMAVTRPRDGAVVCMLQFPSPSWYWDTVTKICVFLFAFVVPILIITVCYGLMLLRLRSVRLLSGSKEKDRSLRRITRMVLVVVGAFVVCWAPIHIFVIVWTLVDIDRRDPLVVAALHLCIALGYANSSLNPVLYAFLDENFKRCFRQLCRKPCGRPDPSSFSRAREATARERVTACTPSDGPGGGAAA
Sequence of Tyrosine-protein phosphatase non-receptor type 7 (P35236 whole entry): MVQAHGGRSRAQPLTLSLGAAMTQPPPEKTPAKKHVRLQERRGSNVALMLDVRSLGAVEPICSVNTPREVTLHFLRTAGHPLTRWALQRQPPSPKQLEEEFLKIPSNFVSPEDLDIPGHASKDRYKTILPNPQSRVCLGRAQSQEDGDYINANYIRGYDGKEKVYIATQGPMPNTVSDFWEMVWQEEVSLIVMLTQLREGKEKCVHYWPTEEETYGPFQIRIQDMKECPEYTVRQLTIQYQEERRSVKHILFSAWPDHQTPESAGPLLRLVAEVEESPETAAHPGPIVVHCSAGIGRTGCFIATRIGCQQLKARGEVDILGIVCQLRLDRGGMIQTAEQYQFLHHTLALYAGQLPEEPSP
Sequence of Mu-type opioid receptor (P35372 whole entry): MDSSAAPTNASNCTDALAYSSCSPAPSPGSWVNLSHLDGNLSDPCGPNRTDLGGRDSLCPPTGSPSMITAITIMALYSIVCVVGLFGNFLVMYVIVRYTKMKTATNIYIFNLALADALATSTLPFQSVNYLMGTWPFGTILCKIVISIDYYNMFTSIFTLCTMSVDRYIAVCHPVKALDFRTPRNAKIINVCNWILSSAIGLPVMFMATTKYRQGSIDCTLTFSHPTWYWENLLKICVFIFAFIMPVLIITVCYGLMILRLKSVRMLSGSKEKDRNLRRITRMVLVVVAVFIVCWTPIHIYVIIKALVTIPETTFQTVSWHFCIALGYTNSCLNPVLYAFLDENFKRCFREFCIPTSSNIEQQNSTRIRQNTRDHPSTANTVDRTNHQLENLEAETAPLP
Sequence of Beta-galactosidase (Q8VNN2 whole entry): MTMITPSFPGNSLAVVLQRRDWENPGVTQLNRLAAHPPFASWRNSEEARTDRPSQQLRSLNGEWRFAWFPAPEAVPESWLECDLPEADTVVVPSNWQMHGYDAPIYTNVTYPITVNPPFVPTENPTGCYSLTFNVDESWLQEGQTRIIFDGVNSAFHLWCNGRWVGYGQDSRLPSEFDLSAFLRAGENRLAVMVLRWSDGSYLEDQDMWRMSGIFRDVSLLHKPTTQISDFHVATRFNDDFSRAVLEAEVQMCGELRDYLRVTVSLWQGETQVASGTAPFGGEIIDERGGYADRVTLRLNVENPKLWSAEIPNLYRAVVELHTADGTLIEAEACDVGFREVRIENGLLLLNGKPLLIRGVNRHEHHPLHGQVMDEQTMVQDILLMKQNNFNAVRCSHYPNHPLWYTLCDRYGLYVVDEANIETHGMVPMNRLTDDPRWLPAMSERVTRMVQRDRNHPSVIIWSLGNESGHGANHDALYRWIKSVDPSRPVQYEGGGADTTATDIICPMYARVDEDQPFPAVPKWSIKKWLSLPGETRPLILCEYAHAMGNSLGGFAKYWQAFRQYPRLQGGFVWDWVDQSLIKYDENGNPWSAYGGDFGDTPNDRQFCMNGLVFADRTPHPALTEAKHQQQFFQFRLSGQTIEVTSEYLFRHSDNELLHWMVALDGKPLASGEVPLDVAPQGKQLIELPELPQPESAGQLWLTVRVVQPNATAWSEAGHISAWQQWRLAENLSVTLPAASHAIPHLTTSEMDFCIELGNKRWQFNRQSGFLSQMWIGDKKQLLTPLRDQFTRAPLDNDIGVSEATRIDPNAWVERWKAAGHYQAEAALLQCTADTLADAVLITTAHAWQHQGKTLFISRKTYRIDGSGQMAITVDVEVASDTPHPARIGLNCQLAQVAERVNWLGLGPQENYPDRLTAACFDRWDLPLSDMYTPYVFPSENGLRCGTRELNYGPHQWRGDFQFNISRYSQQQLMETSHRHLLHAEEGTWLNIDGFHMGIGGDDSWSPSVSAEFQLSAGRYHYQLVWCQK
Sequence of Galanin receptor type 3 (O60755 whole entry): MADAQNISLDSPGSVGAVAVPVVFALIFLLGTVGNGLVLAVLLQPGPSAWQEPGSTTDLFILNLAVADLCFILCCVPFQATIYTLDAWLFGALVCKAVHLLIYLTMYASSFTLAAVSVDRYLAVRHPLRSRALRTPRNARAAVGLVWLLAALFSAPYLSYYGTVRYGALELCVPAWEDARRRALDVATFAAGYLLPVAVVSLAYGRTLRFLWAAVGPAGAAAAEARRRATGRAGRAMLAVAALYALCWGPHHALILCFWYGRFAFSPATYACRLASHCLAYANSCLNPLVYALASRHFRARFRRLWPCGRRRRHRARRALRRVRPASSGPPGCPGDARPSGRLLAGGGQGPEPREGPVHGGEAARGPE

COC(=O)C/C=N/NC1=NC(=O)/C(=C/C(=O)O)S1
IC50 [1]: 3.68 µM (active)
IC50 [2]: > 100 µM (inactive)
IC50 [3]: 1.74 µM (active)

NS(=O)(=O)c1ccc(NC(=S)Nc2ccc3c(c2)CCC3)cc1
IC50 [4]: 7.93 µM (active)

COc1ccc(Cn2c(SCc3ccccc3)nnc2-c2ccccn2)cc1
EC50 [5]: > 20 µM (inactive)

O=C(Nc1nnc(SCc2ccc(F)cc2)s1)c1ccccn1
EC50 [6]: 74.7 µM (active)
IC50 [7]: > 32 µM (inactive)
EC50 (Mu-type opioid receptor): > 32 µM (inactive)
EC50 [8]: 0.663 µM (active)
EC50 [9]: > 32 µM (inactive)
EC50 [10]: 1.42 µM (active)
EC50 [11]: > 180 µM (inactive)
IC50 [12]: 4.45 µM (active)
EC50 (Beta-galactosidase): > 31.5 µM (inactive)
pIC50 [13]: < 4.49
EC50 (Streptococcus): 2.54 µM (active)
AC50 (HEK293): 1.97 µM (active)
AC50 [14]: 3.56 µM (active)
EC50 [15]: 4.97 µM (active)

O=C(Nc1ccc(Cl)cc1)N1CCCN(Cc2ccccc2F)C1
IC50 [16]: > 125 µM (active)

C/C(=N\OCc1nc2ccccc2c(=O)n1/N=C/c1cc(C)cc([N+](=O)[O-])c1O)c1ccccc1
EC50 (cells [17]): 78 µM (active)
IC50 (SUMO-activating enzyme [18]): 1.2 µM (active)
IC50 (SUMO-activating enzyme [19]): 8.77 µM (active)
EC50 (cells [20]): > 350 µM (not active)
IC50 (Galanin receptor type 3): 3.39 µM (active)
EC50 (cells [21]): > 29.9 µM (inactive)
IC50 (Albumin): > 94.1 µM (inactive)
